According to the CheMixHub viscosity set:

Assay: xn = mol fraction of the nth substance listed

CCOCCOCCO + CCCN
298.15 K, 101 kPa
Conditions | viscosity [mPa·s]
x1 = 0.0118 | 0.374
x1 = 0.0312 | 0.412
x1 = 0.0523 | 0.448
x1 = 0.0786 | 0.495
x1 = 0.099 | 0.533
x1 = 0.1259 | 0.59
x1 = 0.1728 | 0.701
x1 = 0.2037 | 0.789
x1 = 0.2298 | 0.868
x1 = 0.2646 | 0.986
x1 = 0.3048 | 1.133
x1 = 0.3392 | 1.272
x1 = 0.4055 | 1.566
x1 = 0.4419 | 1.745
x1 = 0.4758 | 1.917
x1 = 0.5112 | 2.092
x1 = 0.5558 | 2.317
x1 = 0.5903 | 2.488
x1 = 0.633 | 2.695
x1 = 0.6711 | 2.869
x1 = 0.7054 | 3.013
x1 = 0.7412 | 3.154
x1 = 0.7802 | 3.297
x1 = 0.8328 | 3.464
x1 = 0.8664 | 3.549
x1 = 0.8935 | 3.616
x1 = 0.9187 | 3.674
x1 = 0.9388 | 3.712
x1 = 0.9709 | 3.779

ClC(Cl)=C(Cl)Cl + Cc1ccc(C)cc1
303.15 K, 101 kPa
Conditions | viscosity [mPa·s]
x1 = 0.106 | 0.586
x1 = 0.1121 | 0.588
x1 = 0.212 | 0.607
x1 = 0.6339 | 0.704
x1 = 0.6982 | 0.719
x1 = 0.7773 | 0.738
x1 = 0.8517 | 0.757

O=[N+]([O-])c1ccccc1 + OCCOCCOCCO
viscosity [mPa·s], 101 kPa
Conditions | 298.15 K | 308.15 K
x2 = 0.0465 | 2.086 | 1.759
x2 = 0.1495 | 2.91 | 2.342
x2 = 0.2501 | 3.999 | 3.087
x2 = 0.3505 | 5.455 | 4.049
x2 = 0.4432 | 7.222 | 5.184
x2 = 0.4957 | 8.443 | 5.954
x2 = 0.5486 | 9.864 | 6.838
x2 = 0.6486 | 13.17 | 8.857
x2 = 0.7501 | 17.53 | 11.47
x2 = 0.8489 | 23 | 14.69
x2 = 0.94 | 29.37 | 18.4

CCCCCO + CCCO
101.33 kPa
Conditions | viscosity [mPa·s]
293.15 K, x2 = 0.1659 | 3.671
293.15 K, x2 = 0.3648 | 3.292
293.15 K, x2 = 0.5097 | 3.015
293.15 K, x2 = 0.6041 | 2.854
293.15 K, x2 = 0.7449 | 2.617
298.15 K, x2 = 0.2007 | 3.137
298.15 K, x2 = 0.381 | 2.856
298.15 K, x2 = 0.4603 | 2.722
298.15 K, x2 = 0.6314 | 2.464
298.15 K, x2 = 0.7745 | 2.261
298.15 K, x2 = 0.8626 | 2.141

CCCCCCC + CCCCO
viscosity [mPa·s]
Conditions | 298.15 K | 308.15 K
100 kPa, x2 = 0.1602 | 0.4667 | –
100 kPa, x2 = 0.3421 | 0.6085 | –
100 kPa, x2 = 0.5006 | 0.8545 | –
100 kPa, x2 = 0.6598 | 1.191 | –
100 kPa, x2 = 0.8398 | 1.747 | –
101.33 kPa, x2 = 0.077 | 0.421 | 0.3698
101.33 kPa, x2 = 0.1523 | 0.456 | 0.392
101.33 kPa, x2 = 0.2853 | 0.5468 | 0.4571
101.33 kPa, x2 = 0.4094 | 0.667 | 0.5432
101.33 kPa, x2 = 0.5024 | 0.787 | 0.6232
101.33 kPa, x2 = 0.6136 | 0.9824 | 0.7769
101.33 kPa, x2 = 0.7055 | 1.204 | 0.9444
101.33 kPa, x2 = 0.7866 | 1.453 | 1.136
101.33 kPa, x2 = 0.8595 | 1.751 | 1.363
101.33 kPa, x2 = 0.8998 | 1.942 | 1.515
101.33 kPa, x2 = 0.9352 | 2.144 | 1.666
101.33 kPa, x2 = 0.9675 | 2.342 | 1.821
